# Data as given in ChEMBL document CHEMBL1146319, “Design, synthesis, and in vivo evaluation of oxamniquine methacrylate and acrylamide prodrugs” (2007).
# How the values were obtained:
# Assay type in all cases: functional
# Schistosoma mansoni [1] = test: Antiparasitic activity against Schistosoma mansoni BH cercareae infected Swiss mouse assessed as average number of eggs at 3 stage after 20 days by oogram test
# Schistosoma mansoni [2] = test: Antiparasitic activity against Schistosoma mansoni BH cercareae infected Swiss mouse assessed as average number of eggs at 1 stage after 20 days by oogram test
# Schistosoma mansoni [3] = test: Antiparasitic activity against Schistosoma mansoni BH cercareae infected Swiss mouse assessed as total number of worms after 10 days by mesenteric veins perfusion technique
# Schistosoma mansoni [4] = test: Antiparasitic activity against Schistosoma mansoni BH cercareae infected Swiss mouse assessed as average number of eggs at 2 stage after 10 days by oogram test
# Schistosoma mansoni [5] = test: Antiparasitic activity against Schistosoma mansoni BH cercareae infected Swiss mouse assessed as average number of eggs at 2 stage after 20 days by oogram test
# Schistosoma mansoni [6] = test: Antiparasitic activity against Schistosoma mansoni BH cercareae infected Swiss mouse as total numbers of worms after 20 days by mesenteric veins perfusion technique
# Schistosoma mansoni [7] = test: Antiparasitic activity against Schistosoma mansoni BH cercareae infected Swiss mouse assessed as average number of eggs at 3 stage after 10 days by oogram test
# Schistosoma mansoni [8] = test: Antiparasitic activity against Schistosoma mansoni BH cercareae infected Swiss mouse assessed as average number of eggs at 1 stage after 10 days by oogram test
SMILES,Activity (Schistosoma mansoni [1]),Activity (Schistosoma mansoni [2]),Activity (Schistosoma mansoni [3]),Activity (Schistosoma mansoni [4]),Activity (Schistosoma mansoni [5]),Activity (Schistosoma mansoni [6]),Activity (Schistosoma mansoni [7]),Activity (Schistosoma mansoni [8])
C=C(C)C(=O)OCc1cc2c(cc1[N+](=O)[O-])NC(CNC(C)C)CC2 (stereo unspecified) [OXAMNIQUINE ACRYLAMIDE],0.27,0,48,0.11,0.09,39,0.22,0
CC(C)NCC1CCc2cc(CO)c([N+](=O)[O-])cc2N1 (stereo unspecified) [OXAMNIQUINE],0,0,3,0,0,13,0,0
